# Columns and labels:
# [1] = Storage stability of ticagrelor 6 mg/ml in HPβCD 40% w/w at pH 4.5, 5.5, 6.5, 40° C./75% RH, related substances by HPLC; assay type: physicochemical; conditions: for Acetal impurity, average content / Amine impurity, average content / Impurity at relative retention time 1.52, average content / Oxidative impurity 1, average content / Oxidative impurity 2, average content / Regiomer impurity, average content / Sum impurities >0.05 / Total impurities / Triol Impurity, average content: 40° C./75% RH
# Protocol: HPBCD was dissolved in a buffer solution of pH 4.5, 5.5 or 6.5 prepared separately in water. […] The ticagrelor in buffer solution was filtered through a 0.22 micron filtered and filled in USP Type I glass vials. The vials were stoppered and stored. All precautions were taken during manufacturing, such as N2 purging and avoiding direct exposure to light. The vials were stored at 40° C. and 75% Relative Humidity (RH). To determine the stability of the formulations, batches were evaluated using a related substance method on HPLC. A Gradient HPLC method was used to analyze impurities in formulations using a YMC-Pack Pro C18 column (100×4.6 mm, S-3 μm 12 nm). Good separation was obtained for all the impurities.
# [2] = Bulk hold study, ticagrelor 8 mg/ml in HPβCD 30% w/w, phosphate buffer pH 7.5; assay type: physicochemical
# Protocol: To investigate the impact of temperature and hold time, a new composition was prepared as per below Table 19. In first step a phosphate buffer at pH 7.5 was prepared and the buffered solution was heated to 40° C.-45° C. HPβCD was added to the buffered solution under continuous mixing. […] It usually took 30 mins to 4 hours depending on batch size. Then this solution was filtered through a 0.22-micron filter and packed in suitable clear or amber colored glass vials.
# [3] = tested on: methicillin-resistant Staphylococcus epidermis (MRSE); conditions: ex-vivo; cited from earlier work
# [4] = bulk hold at 45° C. in glass vials, T = 1 h
# [5] = bulk hold at 45° C. in glass vials, T = 110 h
# [6] = bulk solution in sealed vials, T = 1 M, 25° C.
# [7] = bulk solution in sealed vials, T = 1 M, 40° C.
smiles,measurement,setting,value
"CCCSc1nc(N[C@@H]2C[C@H]2c2ccc(F)c(F)c2)c2nnn([C@@H]3C[C@H](OCCO)[C@@H](O)[C@H]3O)c2n1 [ticagrelor, (1S,2S,3R,5S)-3-{7-[(1R,2S)-2-(3,4-difluorophenyl)cyclopropylamino]5-(propylthio)-3H-(1,2,3)triazolo (4,5-D)pyrimidin-3-yl}-5-(2 hydroxyethoxy) cyclopentane-1,2-diol]",regiomer impurity level,"[1]; 4 weeks 40° C. and 75% RH, specification limit 0.3%",~0.3%
same,"Acetal impurity, average content","[1]; pH 4.5, T = 0",0.05%
same,"Amine impurity, average content","[1]; pH 4.5, T = 0",0.05%
same,"Impurity at relative retention time 1.52, average content","[1]; pH 4.5, T = 0",0.03%
same,"Oxidative impurity 1, average content","[1]; pH 4.5, T = 0",0.00%
same,"Oxidative impurity 2, average content","[1]; pH 4.5, T = 0",0.00%
same,"Regiomer impurity, average content","[1]; pH 4.5, T = 0",0.00%
same,Sum impurities >0.05,"[1]; pH 4.5, T = 0",0.22%
same,Total impurities,"[1]; pH 4.5, T = 0",0.36%
same,"Triol Impurity, average content","[1]; pH 4.5, T = 0",0.05%
same,"Acetal impurity, average content","[1]; pH 4.5, T = 2 weeks",0.06%
same,"Amine impurity, average content","[1]; pH 4.5, T = 2 weeks",0.05%
same,"Impurity at relative retention time 1.52, average content","[1]; pH 4.5, T = 2 weeks",0.04%
same,"Oxidative impurity 1, average content","[1]; pH 4.5, T = 2 weeks",0.00%
same,"Oxidative impurity 2, average content","[1]; pH 4.5, T = 2 weeks",0.00%
same,"Regiomer impurity, average content","[1]; pH 4.5, T = 2 weeks",0.00%
same,Sum impurities >0.05,"[1]; pH 4.5, T = 2 weeks",0.23%
same,Total impurities,"[1]; pH 4.5, T = 2 weeks",0.40%
same,"Triol Impurity, average content","[1]; pH 4.5, T = 2 weeks",0.05%
same,"Acetal impurity, average content","[1]; pH 4.5, T = 4 weeks",0.05%
same,"Amine impurity, average content","[1]; pH 4.5, T = 4 weeks",0.05%
same,"Impurity at relative retention time 1.52, average content","[1]; pH 4.5, T = 4 weeks",0.03%
same,"Oxidative impurity 1, average content","[1]; pH 4.5, T = 4 weeks",0.01%
same,"Oxidative impurity 2, average content","[1]; pH 4.5, T = 4 weeks",0.02%
same,"Regiomer impurity, average content","[1]; pH 4.5, T = 4 weeks",0.42%
same,Sum impurities >0.05,"[1]; pH 4.5, T = 4 weeks",0.63%
same,Total impurities,"[1]; pH 4.5, T = 4 weeks",0.80%
same,"Triol Impurity, average content","[1]; pH 4.5, T = 4 weeks",0.05%
same,"Acetal impurity, average content","[1]; pH 5.5, T = 0",0.05%
same,"Amine impurity, average content","[1]; pH 5.5, T = 0",0.04%
same,"Impurity at relative retention time 1.52, average content","[1]; pH 5.5, T = 0",0.02%
same,"Oxidative impurity 1, average content","[1]; pH 5.5, T = 0",0.00%
same,"Oxidative impurity 2, average content","[1]; pH 5.5, T = 0",0.00%
same,"Regiomer impurity, average content","[1]; pH 5.5, T = 0",0.00%
same,Sum impurities >0.05,"[1]; pH 5.5, T = 0",0.16%
same,Total impurities,"[1]; pH 5.5, T = 0",0.33%
same,"Triol Impurity, average content","[1]; pH 5.5, T = 0",0.05%
same,"Acetal impurity, average content","[1]; pH 5.5, T = 2 weeks",0.05%
same,"Amine impurity, average content","[1]; pH 5.5, T = 2 weeks",0.05%
same,"Impurity at relative retention time 1.52, average content","[1]; pH 5.5, T = 2 weeks",0.03%
same,"Oxidative impurity 1, average content","[1]; pH 5.5, T = 2 weeks",0.00%
same,"Oxidative impurity 2, average content","[1]; pH 5.5, T = 2 weeks",0.00%
same,"Regiomer impurity, average content","[1]; pH 5.5, T = 2 weeks",0.00%
same,Sum impurities >0.05,"[1]; pH 5.5, T = 2 weeks",0.21%
same,Total impurities,"[1]; pH 5.5, T = 2 weeks",0.36%
same,"Triol Impurity, average content","[1]; pH 5.5, T = 2 weeks",0.05%
same,"Acetal impurity, average content","[1]; pH 5.5, T = 4 weeks",0.05%
same,"Amine impurity, average content","[1]; pH 5.5, T = 4 weeks",0.04%
same,"Impurity at relative retention time 1.52, average content","[1]; pH 5.5, T = 4 weeks",0.02%
same,"Oxidative impurity 1, average content","[1]; pH 5.5, T = 4 weeks",0.01%
same,"Oxidative impurity 2, average content","[1]; pH 5.5, T = 4 weeks",0.02%
same,"Regiomer impurity, average content","[1]; pH 5.5, T = 4 weeks",0.30%
same,Sum impurities >0.05,"[1]; pH 5.5, T = 4 weeks",0.45%
same,Total impurities,"[1]; pH 5.5, T = 4 weeks",0.65%
same,"Triol Impurity, average content","[1]; pH 5.5, T = 4 weeks",0.05%
same,"Acetal impurity, average content","[1]; pH 6.5, T = 0",0.06%
same,"Amine impurity, average content","[1]; pH 6.5, T = 0",0.05%
same,"Impurity at relative retention time 1.52, average content","[1]; pH 6.5, T = 0",0.03%
same,"Oxidative impurity 1, average content","[1]; pH 6.5, T = 0",0.00%
same,"Oxidative impurity 2, average content","[1]; pH 6.5, T = 0",0.00%
same,"Regiomer impurity, average content","[1]; pH 6.5, T = 0",0.00%
same,Sum impurities >0.05,"[1]; pH 6.5, T = 0",0.22%
same,Total impurities,"[1]; pH 6.5, T = 0",0.36%
same,"Triol Impurity, average content","[1]; pH 6.5, T = 0",0.06%
same,"Acetal impurity, average content","[1]; pH 6.5, T = 2 weeks",0.06%
same,"Amine impurity, average content","[1]; pH 6.5, T = 2 weeks",0.05%
same,"Impurity at relative retention time 1.52, average content","[1]; pH 6.5, T = 2 weeks",0.04%
same,"Oxidative impurity 1, average content","[1]; pH 6.5, T = 2 weeks",0.00%
same,"Oxidative impurity 2, average content","[1]; pH 6.5, T = 2 weeks",0.00%
same,"Regiomer impurity, average content","[1]; pH 6.5, T = 2 weeks",0.00%
same,Sum impurities >0.05,"[1]; pH 6.5, T = 2 weeks",0.23%
same,Total impurities,"[1]; pH 6.5, T = 2 weeks",0.41%
same,"Triol Impurity, average content","[1]; pH 6.5, T = 2 weeks",0.06%
same,"Acetal impurity, average content","[1]; pH 6.5, T = 4 weeks",0.06%
same,"Amine impurity, average content","[1]; pH 6.5, T = 4 weeks",0.05%
same,"Impurity at relative retention time 1.52, average content","[1]; pH 6.5, T = 4 weeks",0.03%
same,"Oxidative impurity 1, average content","[1]; pH 6.5, T = 4 weeks",0.00%
same,"Oxidative impurity 2, average content","[1]; pH 6.5, T = 4 weeks",0.04%
same,"Regiomer impurity, average content","[1]; pH 6.5, T = 4 weeks",0.35%
same,Sum impurities >0.05,"[1]; pH 6.5, T = 4 weeks",0.56%
same,Total impurities,"[1]; pH 6.5, T = 4 weeks",0.72%
same,"Triol Impurity, average content","[1]; pH 6.5, T = 4 weeks",0.05%
same,"Acetal impurity, average content","[2]; bulk hold at 30° C., T0",0.04%
same,"Amine impurity, average content","[2]; bulk hold at 30° C., T0",0.06%
same,Assay ticagrelor,"[2]; bulk hold at 30° C., T0",105.60%
same,"Regiomer impurity, average content","[2]; bulk hold at 30° C., T0",0.00%
same,Sum impurities >0.05,"[2]; bulk hold at 30° C., T0",0.10%
same,Total impurities,"[2]; bulk hold at 30° C., T0",0.21%
same,"Triol Impurity, average content","[2]; bulk hold at 30° C., T0",0.05%
same,"Acetal impurity, average content","[2]; bulk hold at 30° C., T4 W",0.04%
same,"Amine impurity, average content","[2]; bulk hold at 30° C., T4 W",0.06%
same,Assay ticagrelor,"[2]; bulk hold at 30° C., T4 W",106.14%
same,"Regiomer impurity, average content","[2]; bulk hold at 30° C., T4 W",0.00%
same,Sum impurities >0.05,"[2]; bulk hold at 30° C., T4 W",0.06%
same,Total impurities,"[2]; bulk hold at 30° C., T4 W",0.21%
same,"Triol Impurity, average content","[2]; bulk hold at 30° C., T4 W",0.04%
same,"Acetal impurity, average content",[2]; [4],0.04%
same,"Amine impurity, average content",[2]; [4],0.05%
same,Assay ticagrelor,[2]; [4],107.87%
same,"Impurity at relative retention time 1.33, average content",[2]; [4],0.07%
same,Sum impurities >0.05,[2]; [4],0.12%
same,Total impurities,[2]; [4],0.20%
same,"Triol Impurity, average content",[2]; [4],0.04%
same,"Acetal impurity, average content",[2]; [5],0.04%
same,"Amine impurity, average content",[2]; [5],0.07%
same,Assay ticagrelor,[2]; [5],109.10%
same,"Impurity at relative retention time 1.33, average content",[2]; [5],0.03%
same,Sum impurities >0.05,[2]; [5],0.11%
same,Total impurities,[2]; [5],0.28%
same,"Triol Impurity, average content",[2]; [5],0.05%
same,"Acetal impurity, average content",[2]; [6],0.03%
same,"Amine impurity, average content",[2]; [6],0.06%
same,Assay ticagrelor,[2]; [6],107.22%
same,"Impurity at relative retention time 1.03, average content",[2]; [6],0.02%
same,"Impurity at relative retention time 1.33, average content",[2]; [6],0.03%
same,"Regiomer impurity, average content",[2]; [6],0.03%
same,Sum impurities >0.05,[2]; [6],0.06%
same,Total impurities,[2]; [6],0.23%
same,"Triol Impurity, average content",[2]; [6],0.01%
same,"Acetal impurity, average content",[2]; [7],0.00%
same,"Amine impurity, average content",[2]; [7],0.06%
same,Assay ticagrelor,[2]; [7],105.16%
same,"Impurity at relative retention time 1.03, average content",[2]; [7],0.02%
same,"Impurity at relative retention time 1.33, average content",[2]; [7],0.08%
same,"Regiomer impurity, average content",[2]; [7],0.08%
same,Sum impurities >0.05,[2]; [7],0.21%
same,Total impurities,[2]; [7],0.28%
same,"Triol Impurity, average content",[2]; [7],0.00%
same,minimal bactericidal concentration,[3],30 microgram/ml

# From patent publication US20260007599A1, “TICAGRELOR IV FORMULATIONS FOR USE IN THE TREATMENT OF GRAM-POSITIVE BACTEREMIA” (Hyloris Developments SA, priority 2023, published 2026)
